# Source: the CheMixHub viscosity set
# ± gives the uncertainty stated by the source.
# Test: xn = mol fraction of the nth substance listed
smiles,measurement,setting,value
CC[N+](=O)[O-] + CCCO,viscosity,"293.15 K, 101.33 kPa, x2 = 0.05",0.686 ± 0.006 mPa·s
same,viscosity,"293.15 K, 101.33 kPa, x2 = 0.1",0.683 ± 0.006 mPa·s
same,viscosity,"293.15 K, 101.33 kPa, x2 = 0.1499",0.69 ± 0.006 mPa·s
same,viscosity,"293.15 K, 101.33 kPa, x2 = 0.2001",0.702 ± 0.006 mPa·s
same,viscosity,"293.15 K, 101.33 kPa, x2 = 0.25",0.72 ± 0.006 mPa·s
same,viscosity,"293.15 K, 101.33 kPa, x2 = 0.3",0.748 ± 0.007 mPa·s
same,viscosity,"293.15 K, 101.33 kPa, x2 = 0.35",0.776 ± 0.007 mPa·s
same,viscosity,"293.15 K, 101.33 kPa, x2 = 0.4",0.808 ± 0.007 mPa·s
same,viscosity,"293.15 K, 101.33 kPa, x2 = 0.45",0.848 ± 0.007 mPa·s
same,viscosity,"293.15 K, 101.33 kPa, x2 = 0.5",0.898 ± 0.008 mPa·s
same,viscosity,"293.15 K, 101.33 kPa, x2 = 0.55",0.951 ± 0.008 mPa·s
same,viscosity,"293.15 K, 101.33 kPa, x2 = 0.6",1.016 ± 0.009 mPa·s
same,viscosity,"293.15 K, 101.33 kPa, x2 = 0.65",1.085 ± 0.009 mPa·s
same,viscosity,"293.15 K, 101.33 kPa, x2 = 0.7",1.17 ± 0.01 mPa·s
same,viscosity,"293.15 K, 101.33 kPa, x2 = 0.75",1.282 ± 0.01 mPa·s
same,viscosity,"293.15 K, 101.33 kPa, x2 = 0.8",1.391 ± 0.011 mPa·s
same,viscosity,"293.15 K, 101.33 kPa, x2 = 0.85",1.539 ± 0.012 mPa·s
same,viscosity,"293.15 K, 101.33 kPa, x2 = 0.9",1.717 ± 0.014 mPa·s
same,viscosity,"293.15 K, 101.33 kPa, x2 = 0.95",1.945 ± 0.015 mPa·s
same,viscosity,"303.15 K, 101.33 kPa, x2 = 0.05",0.609 ± 0.006 mPa·s
same,viscosity,"303.15 K, 101.33 kPa, x2 = 0.1",0.605 ± 0.005 mPa·s
same,viscosity,"303.15 K, 101.33 kPa, x2 = 0.1499",0.607 ± 0.005 mPa·s
same,viscosity,"303.15 K, 101.33 kPa, x2 = 0.2001",0.617 ± 0.006 mPa·s
same,viscosity,"303.15 K, 101.33 kPa, x2 = 0.25",0.629 ± 0.006 mPa·s
same,viscosity,"303.15 K, 101.33 kPa, x2 = 0.3",0.647 ± 0.006 mPa·s
same,viscosity,"303.15 K, 101.33 kPa, x2 = 0.35",0.667 ± 0.006 mPa·s
same,viscosity,"303.15 K, 101.33 kPa, x2 = 0.4",0.694 ± 0.006 mPa·s
same,viscosity,"303.15 K, 101.33 kPa, x2 = 0.45",0.724 ± 0.006 mPa·s
same,viscosity,"303.15 K, 101.33 kPa, x2 = 0.5",0.758 ± 0.007 mPa·s
same,viscosity,"303.15 K, 101.33 kPa, x2 = 0.55",0.8 ± 0.007 mPa·s
same,viscosity,"303.15 K, 101.33 kPa, x2 = 0.6",0.852 ± 0.007 mPa·s
same,viscosity,"303.15 K, 101.33 kPa, x2 = 0.65",0.902 ± 0.008 mPa·s
same,viscosity,"303.15 K, 101.33 kPa, x2 = 0.7",0.967 ± 0.008 mPa·s
same,viscosity,"303.15 K, 101.33 kPa, x2 = 0.75",1.043 ± 0.009 mPa·s
same,viscosity,"303.15 K, 101.33 kPa, x2 = 0.8",1.133 ± 0.009 mPa·s
same,viscosity,"303.15 K, 101.33 kPa, x2 = 0.85",1.243 ± 0.01 mPa·s
same,viscosity,"303.15 K, 101.33 kPa, x2 = 0.9",1.377 ± 0.011 mPa·s
same,viscosity,"303.15 K, 101.33 kPa, x2 = 0.95",1.559 ± 0.013 mPa·s
same,viscosity,"313.15 K, 101.33 kPa, x2 = 0.05",0.544 ± 0.005 mPa·s
same,viscosity,"313.15 K, 101.33 kPa, x2 = 0.1",0.539 ± 0.005 mPa·s
same,viscosity,"313.15 K, 101.33 kPa, x2 = 0.1499",0.539 ± 0.005 mPa·s
same,viscosity,"313.15 K, 101.33 kPa, x2 = 0.2001",0.547 ± 0.005 mPa·s
same,viscosity,"313.15 K, 101.33 kPa, x2 = 0.25",0.554 ± 0.005 mPa·s
same,viscosity,"313.15 K, 101.33 kPa, x2 = 0.3",0.567 ± 0.005 mPa·s
same,viscosity,"313.15 K, 101.33 kPa, x2 = 0.35",0.581 ± 0.005 mPa·s
same,viscosity,"313.15 K, 101.33 kPa, x2 = 0.4",0.609 ± 0.006 mPa·s
same,viscosity,"313.15 K, 101.33 kPa, x2 = 0.45",0.623 ± 0.006 mPa·s
same,viscosity,"313.15 K, 101.33 kPa, x2 = 0.5",0.655 ± 0.006 mPa·s
same,viscosity,"313.15 K, 101.33 kPa, x2 = 0.55",0.681 ± 0.006 mPa·s
same,viscosity,"313.15 K, 101.33 kPa, x2 = 0.6",0.718 ± 0.006 mPa·s
same,viscosity,"313.15 K, 101.33 kPa, x2 = 0.65",0.756 ± 0.007 mPa·s
same,viscosity,"313.15 K, 101.33 kPa, x2 = 0.7",0.808 ± 0.007 mPa·s
same,viscosity,"313.15 K, 101.33 kPa, x2 = 0.75",0.881 ± 0.008 mPa·s
same,viscosity,"313.15 K, 101.33 kPa, x2 = 0.8",0.947 ± 0.008 mPa·s
same,viscosity,"313.15 K, 101.33 kPa, x2 = 0.85",1.035 ± 0.009 mPa·s
same,viscosity,"313.15 K, 101.33 kPa, x2 = 0.9",1.125 ± 0.009 mPa·s
same,viscosity,"313.15 K, 101.33 kPa, x2 = 0.95",1.239 ± 0.01 mPa·s
Cc1ccncc1 + CCCO,viscosity,"298.15 K, 101.33 kPa, x2 = 0.091",0.9024 ± 0.011 mPa·s
same,viscosity,"298.15 K, 101.33 kPa, x2 = 0.2095",0.9381 ± 0.011 mPa·s
same,viscosity,"298.15 K, 101.33 kPa, x2 = 0.3419",1.007 ± 0.011 mPa·s
same,viscosity,"298.15 K, 101.33 kPa, x2 = 0.4177",1.071 ± 0.011 mPa·s
same,viscosity,"298.15 K, 101.33 kPa, x2 = 0.5662",1.168 ± 0.011 mPa·s
same,viscosity,"298.15 K, 101.33 kPa, x2 = 0.7017",1.327 ± 0.012 mPa·s
same,viscosity,"298.15 K, 101.33 kPa, x2 = 0.7646",1.405 ± 0.012 mPa·s
same,viscosity,"298.15 K, 101.33 kPa, x2 = 0.8291",1.52 ± 0.013 mPa·s
same,viscosity,"298.15 K, 101.33 kPa, x2 = 0.867",1.591 ± 0.013 mPa·s
O=[N+]([O-])c1ccc(O)cc1 + CCN(CC)CC,viscosity,"298.16 K, 101 kPa, x1 = 0.5818",294.3 ± 18 mPa·s
same,viscosity,"298.16 K, 101 kPa, x1 = 0.5939",366.2 ± 25 mPa·s
same,viscosity,"298.16 K, 101 kPa, x1 = 0.6179",606.8 ± 51 mPa·s
same,viscosity,"298.16 K, 101 kPa, x1 = 0.6393",908.7 ± 93 mPa·s
same,viscosity,"298.16 K, 101 kPa, x1 = 0.6718",2449 ± 390 mPa·s
same,viscosity,"298.16 K, 101 kPa, x1 = 0.6969",3733 ± 720 mPa·s
same,viscosity,"298.16 K, 101 kPa, x1 = 0.7221",6669 ± 1700 mPa·s
same,viscosity,"298.16 K, 101 kPa, x1 = 0.739",7410 ± 2000 mPa·s
same,viscosity,"298.16 K, 101 kPa, x1 = 0.7731",8242 ± 2300 mPa·s
same,viscosity,"298.16 K, 101 kPa, x1 = 0.7883",7522 ± 2000 mPa·s
same,viscosity,"298.16 K, 101 kPa, x1 = 0.8008",6867 ± 1800 mPa·s
same,viscosity,"298.16 K, 101 kPa, x1 = 0.8106",6269 ± 1500 mPa·s
CCC(=O)OCCN1CCNCC1 + CCO,viscosity,"293.15 K, 100 kPa, x1 = 0.1216",37.45 ± 0.46 mPa·s
CCCC(=O)OCC(COC(=O)CCC)OC(=O)CCC + CCO,viscosity,"298 K, 101.33 kPa, x1 = 0.1",1.59 ± 0.02 mPa·s
same,viscosity,"298 K, 101.33 kPa, x1 = 0.2",2.22 ± 0.03 mPa·s
same,viscosity,"298 K, 101.33 kPa, x1 = 0.3",2.92 ± 0.03 mPa·s
same,viscosity,"298 K, 101.33 kPa, x1 = 0.4",3.63 ± 0.04 mPa·s
same,viscosity,"298 K, 101.33 kPa, x1 = 0.5",4.38 ± 0.05 mPa·s
same,viscosity,"298 K, 101.33 kPa, x1 = 0.6",5.15 ± 0.06 mPa·s
same,viscosity,"298 K, 101.33 kPa, x1 = 0.7",5.97 ± 0.08 mPa·s
same,viscosity,"298 K, 101.33 kPa, x1 = 0.8",6.78 ± 0.09 mPa·s
same,viscosity,"298 K, 101.33 kPa, x1 = 0.9",7.71 ± 0.11 mPa·s
same,viscosity,"303 K, 101.33 kPa, x1 = 0.1",1.44 ± 0.02 mPa·s
same,viscosity,"303 K, 101.33 kPa, x1 = 0.2",1.98 ± 0.02 mPa·s
same,viscosity,"303 K, 101.33 kPa, x1 = 0.3",2.58 ± 0.03 mPa·s
same,viscosity,"303 K, 101.33 kPa, x1 = 0.4",3.19 ± 0.04 mPa·s
same,viscosity,"303 K, 101.33 kPa, x1 = 0.5",3.81 ± 0.04 mPa·s
same,viscosity,"303 K, 101.33 kPa, x1 = 0.6",4.48 ± 0.05 mPa·s
same,viscosity,"303 K, 101.33 kPa, x1 = 0.7",5.14 ± 0.06 mPa·s
same,viscosity,"303 K, 101.33 kPa, x1 = 0.8",5.82 ± 0.08 mPa·s
same,viscosity,"303 K, 101.33 kPa, x1 = 0.9",6.58 ± 0.09 mPa·s
same,viscosity,"308 K, 101.33 kPa, x1 = 0.1",1.31 ± 0.02 mPa·s
same,viscosity,"308 K, 101.33 kPa, x1 = 0.2",1.78 ± 0.02 mPa·s
same,viscosity,"308 K, 101.33 kPa, x1 = 0.3",2.29 ± 0.03 mPa·s
same,viscosity,"308 K, 101.33 kPa, x1 = 0.4",2.81 ± 0.03 mPa·s
same,viscosity,"308 K, 101.33 kPa, x1 = 0.5",3.35 ± 0.04 mPa·s
same,viscosity,"308 K, 101.33 kPa, x1 = 0.6",3.91 ± 0.05 mPa·s
same,viscosity,"308 K, 101.33 kPa, x1 = 0.7",4.48 ± 0.06 mPa·s
same,viscosity,"308 K, 101.33 kPa, x1 = 0.8",5.04 ± 0.06 mPa·s
same,viscosity,"308 K, 101.33 kPa, x1 = 0.9",5.67 ± 0.08 mPa·s
same,viscosity,"313 K, 101.33 kPa, x1 = 0.1",1.21 ± 0.01 mPa·s
same,viscosity,"313 K, 101.33 kPa, x1 = 0.2",1.61 ± 0.02 mPa·s
same,viscosity,"313 K, 101.33 kPa, x1 = 0.3",2.06 ± 0.02 mPa·s
same,viscosity,"313 K, 101.33 kPa, x1 = 0.4",2.51 ± 0.03 mPa·s
same,viscosity,"313 K, 101.33 kPa, x1 = 0.5",2.97 ± 0.03 mPa·s
same,viscosity,"313 K, 101.33 kPa, x1 = 0.6",3.43 ± 0.04 mPa·s
same,viscosity,"313 K, 101.33 kPa, x1 = 0.7",3.92 ± 0.05 mPa·s
same,viscosity,"313 K, 101.33 kPa, x1 = 0.8",4.4 ± 0.06 mPa·s
same,viscosity,"313 K, 101.33 kPa, x1 = 0.9",4.92 ± 0.07 mPa·s
